Laboratory results taken from patent US20260325473A1, “N-Beta-Hydroxybutyryl-Amino Acids and Related Compositions and Methods” (The Board of Trustees of the Leland Stanford Junior …, priority 2023, published 2026).

Experiments:
[1] = Metabolite quantitation in mouse plasma (QQQ-LC/MS); assay type: in vivo
Protocol: Preparation of plasma samples for LC-MS analysis. Plasma was collected from mice via a submandibular bleed into lithium heparin tubes (BD, 365985) and immediately transferred onto ice. The blood was centrifuged at 4° C. at 5000 rpm for 5 min and the top layer of plasma was aliquoted and frozen at −80 °C. To extract polar metabolites from plasma for LC-MS analysis, 150 μl of a 2:1 mixture of acetonitrile/methanol was added to 50 μl of plasma. The mixture was centrifuged at 4° C. for 10 min at 15,000 rpm and the supernatant was transferred to a LC-MS vial.
Targeted metabolomics. Targeted measurements were performed using an Agilent 6470 triple quadrupole LC-MS instrument. MS analysis was performed using AJS in negative mode. The AJS source parameters were set as follows: the dry gas temperature was set at 250° C. with a gas flow of 12 l/min and the nebulizer pressure at 25 psi; the sheath gas temperature was set to 300° C. with the sheath gas flow set at 12 l/min; and the capillary voltage was set to 3,500 V. Separation of polar metabolites was performed as described above in the ‘Untargeted measurements of metabolites by LC-MS’ section. Multiple reaction monitoring was performed for the indicated metabolites with the listed dwell times, fragmentor voltage, collision energies, cell accelerator voltages and polarities. Quantification of the endogenous metabolite concentrations were performed by generating a standard curve with known concentrations of each metabolite. Metabolite standards were analyzed alongside the plasma samples using the same targeted triple quadrupole LC/MS method. A calibration standard curve generated from the metabolite standard concentrations and total peak areas were used to calculate the concentrations of each endogenous metabolite. The dilution of the plasma during the sample preparation was also taken into account for the quantification.

[2] = system: brain lysate proteins; experiment: Competition of X-Phe photoprobe-labeled brain proteins, quantitative shotgun proteomics; assay type: binding, mouse; settings: 100 μM photoprobe; 50-fold excess competitor
Protocol: Shotgun proteomics of X-Phe photoprobe-labeled proteins. Brains from wild type C57BL/6J mice were harvested and homogenized using a bead blaster in PBS. Brain homogenate was centrifuged (15,000 rpm, 10 min) to yield the cytosolic supernatant and membrane pellet fractions. The cytosolic fraction was transferred to a new eppie and centrifuged again (15,000 rpm, 10 min). This process was repeated 4 times until no pellet was present after centrifugation. The membrane pellet was washed with 1 ml PBS and centrifuged (15,000 rpm, 10 min); this step was also repeated 4 times to remove any cytosolic protein contamination. After the centrifugation steps, the membrane pellet was re-suspended in PBS and sonicated. For competition experiments, brain lysate was normalized to 2 mg/ml in PBS and incubated with competitors at the indicated concentrations at room temperature for 30 minutes. 100 μM of the photoprobe was added and the reactions incubated on ice for 10 minutes protected from light. Reactions were then put under UV for 1 min on a UV Stratalinker. A biotin click reaction was performed by adding the following reagents to the indicated final concentrations: […], 1 mM CuSO4, 1 mM TCEP (freshly prepared), 30 μM Biotin-N3. Reactions were allowed to proceed for 1 hour at room temp, protected from light, and while rotating. The following prep was adapted from Niphakis et al. 2015. To each reaction, the following solvents were added in order, 4 ml cold methanol, 1 ml cold chloroform, 2 ml cold PBS. The mixture was vortexed well and centrifuged (4,600×g, 15 min, 4° C.). After centrifugation the organic and aqueous layers were removed without disruption of the protein disc. The protein disc was washed with a cold 1:1 mixture of methanol:chloroform 3 times. After the final wash, the protein disc was re-suspended in a 4:1 mixture of methanol:chloroform and sonicated. The insoluble protein was pelleted by centrifugation (4,600×g, 15 min, 4 C) and the pellet re-suspended in freshly prepared 500 μl of 6 M urea in PBS. 20 μl of 10% (w/v) SDS was added to the solution. The solution was then warmed in a 37 C water bath for 10 min to help dissolve poorly soluble protein. A streptavidin pulldown was the performed on the protein mixture. 250 μl of streptavidin beads were washed 3 times with 1 ml PBS. Protein samples were diluted with 5.5 ml of 0.25% SDS in PBS and incubated with streptavidin beads for 1.5 hr at room temperature. Following incubation, beads were washed 5 times each with 0.25% SDS in PBS, then PBS, then lastly with ultra-pure water Steptavidin beads were suspended in 150 μL resuspension buffer (1 M urea, 50 mM Tris-HCl, pH 8). Proteins were digested with 3 μg of trypsin for 4 hours. Digested peptides were reduced with 5 mM TCEP for 10 minutes. Cys residues were alkylated using 15 mM iodoacetimide (IAA) for 20 minutes. Finally, excess IAA was quenched with 10 mM DTT. Acidified digested peptides were desalted over C18 StageTips [PMID: 12585499]. Peptides were then eluted with 80% acetonitrile, 0.1% TFA and dried in a speedvac. Dried samples were reconstituted with 200 mM EPPS buffer, pH 8.0, and labelled with TMT reagents (Thermo Fisher Scientific). Following incubation at room temperature for 2 h, the reactions were quenched with hydroxylamine to a final concentration of 0.5% (v/v). […]

[3] = system: DIO mice; experiment: Food, kaolin and water intake in DIO mice; assay type: in vivo, mouse; settings: 50 mg/kg IP, single; 18 h
Protocol: Kaolin and water intake assays. DIO mice were individually housed and allowed ad libitum access to kaolin pellets for 5 days before the start of the experiment. Mice were also provided high-fat diet and had ad libitum access to water. On the day of the experiment, kaolin and high-fat diet pellets were replaced with fresh pellets. Mice were then injected with either vehicle or BHB-Phe (50 mg/kg, IP), and high-fat diet, kaolin and water intake were measured after 18 h.

[4] = system: DIO mice; experiment: Plasma ghrelin, leptin and GDF-15 in DIO mice; assay type: in vivo, mouse; settings: 50 mg/kg IP, single; 1 h
Protocol: Leptin, ghrelin and GDF-15 measurements. Plasma was collected from DIO mice 1 h after the administration of BHB-Phe (50 mg/kg, IP) or vehicle. ELISA kits for leptin (Crystal Chem 90030), ghrelin (Cayman Chemicals 10006307) and GDF-15 (R&D Systems DY6385-05) were used following manufacturer's instructions.

effect of acute treadmill running on level ([1]; 15 min running): unchanged
elevation after ketone ester administration ([1]; 30 min after ketone drink, 3 mg/g): > 10 fold
effect of strenuous and prolonged exercise on level ([1]; 30 min strenuous running): robust co-induction
water intake [3]: without affecting water intake
Compound: CC(O)CC(=O)N[C@@H](Cc1ccccc1)C(=O)O (some centres unmarked) [BHB-Phe, N-betahydroxybutyryl-phenylalanine]
competition of X-Phe photoprobe-labeled proteins [2]: > 80%
number of brain proteins crosslinked by X-Phe photoprobe and >80% competed by Keto-Phe [2]: 32 proteins
food intake (kaolin/water experiment) [3]: suppressed food intake
kaolin consumption [3]: without affecting water intake or kaolin consumption
plasma GDF15 [4]: unaltered
plasma ghrelin [4]: unaltered
plasma leptin [4]: unaltered
